Data taken from patent US20100234390A1, “NOVEL COMPOUND AND THEIR USE” (priority 2007, published 2010).

How the values were obtained:
Test in all cases: Agar dilution MIC
Conditions in all cases: 35° C., 16-20 hours
[1] = test system: M. catarrhalis ATCC 43627; format: cell-based, Moraxella catarrhalis
Protocol: (§1) Briefly, the compounds of invention were weighed, dissolved in dimethyl sulfoxide, serially two fold diluted in the same solvent and then incorporated into molten Mueller Hinton Agar (MHA) in a petridish just before solidification, with each petridish containing a different concentration of a compound.
(§2) The bacterial inoculum was prepared by picking 3 to 5 well isolated bacterial colonies with the same morphological appearance from an 18-24 hours old culture with an inoculating loop, transferring the growth to a tube containing 3 mL of normal saline and adjusting the turbidity of the saline suspension to 0.5 Mc Farland Turbidity Standard equivalent to a bacterial population of 1.5×10^8 colony forming units (CFU) per mL of suspension. The suspension was diluted 1:10 in saline (i.e. 0.5 mL suspension 4.5 mL saline) to get a bacterial population of 1.5×10^7 CFU/mL as inoculum.
(§3) The inoculated petridishes were incubated at 35° C. in an ambient atmosphere for 16-20 hours.

[2] = test system: M. catarrhalis ATCC 43628; format: cell-based, Moraxella catarrhalis
Protocol: as §1, §2, §3

[3] = test system: M. catarrhalis ATCC 43617; format: cell-based, Moraxella catarrhalis
Protocol: as §1, §2, §3

E. faecalis ATCC 51299 = format: cell-based, Enterococcus faecalis
Protocol: as §1, §2, §3

E. faecalis ATCC 29212 = format: cell-based, Enterococcus faecalis
Protocol: as §1, §2, §3

E. faecalis MRO 04205 = format: cell-based, Enterococcus faecalis
Protocol: as §1, §2, §3

E. faecalis MRO 04035 = format: cell-based, Enterococcus faecalis
Protocol: as §1, §2, §3

E. faecalis MRO 04050 = format: cell-based, Enterococcus faecalis
Protocol: as §1, §2, §3

S. aureus ATCC 43300 = format: cell-based, Staphylococcus aureus
Protocol: as §1, §2, §3

S. aureus MRO 00013 = format: cell-based, Staphylococcus aureus
Protocol: as §1, §2, §3

S. aureus MRO 00055 = format: cell-based, Staphylococcus aureus
Protocol: as §1, §2, §3

S. aureus MRO 00030 = format: cell-based, Staphylococcus aureus
Protocol: as §1, §2, §3

S. aureus MRO 00059 = format: cell-based, Staphylococcus aureus
Protocol: as §1, §2, §3

S. aureus MRO 0001 = format: cell-based, Staphylococcus aureus
Protocol: as §1, §2, §3

S. aureus MRO 002053 = format: cell-based, Staphylococcus aureus
Protocol: as §1, §2, §3

S. aureus ATCC 29213 = format: cell-based, Staphylococcus aureus
Protocol: as §1, §2, §3

S. aureus MRO 00048 = format: cell-based, Staphylococcus aureus
Protocol: as §1, §2, §3

S. aureus MRO 0003 = format: cell-based, Staphylococcus aureus
Protocol: as §1, §2, §3

E. faecium ATCC 700221 = format: cell-based, Enterococcus faecium
Protocol: as §1, §2, §3

E. faecium MRO 04037 = format: cell-based, Enterococcus faecium
Protocol: as §1, §2, §3

E. faecium MRO 04038 = format: cell-based, Enterococcus faecium
Protocol: as §1, §2, §3

E. faecium MRO 04198 = format: cell-based, Enterococcus faecium
Protocol: as §1, §2, §3

[4] = test system: S. epidermidis MRO 002046; format: cell-based
Protocol: as §1, §2, §3

[5] = test system: S. saprophyticus MRO 02003; format: cell-based
Protocol: as §1, §2, §3

[6] = test system: S. haemolyticus MRO 02064; format: cell-based
Protocol: as §1, §2, §3

S. epidermidis MRO 02045 = format: cell-based
Protocol: as §1, §2, §3

S. epidermidis MRO 02002 = format: cell-based
Protocol: as §1, §2, §3

S. epidermidis MRO 02095 = format: cell-based
Protocol: as §1, §2, §3

Compound	Antimicrobial Screening (MIC) [1] [µg/mL]	Antimicrobial Screening (MIC) [2] [µg/mL]	Antimicrobial Screening (MIC) [3] [µg/mL]	Antimicrobial Screening (MIC) (E. faecalis ATCC 51299) [µg/mL]	Antimicrobial Screening (MIC) (E. faecalis ATCC 29212) [µg/mL]	Antimicrobial Screening (MIC) (E. faecalis MRO 04205) [µg/mL]	Antimicrobial Screening (MIC) (E. faecalis MRO 04035) [µg/mL]	Antimicrobial Screening (MIC) (E. faecalis MRO 04050) [µg/mL]	Antimicrobial Screening (MIC) (S. aureus ATCC 43300) [µg/mL]	Antimicrobial Screening (MIC) (S. aureus MRO 00013) [µg/mL]	Antimicrobial Screening (MIC) (S. aureus MRO 00055) [µg/mL]	Antimicrobial Screening (MIC) (S. aureus MRO 00030) [µg/mL]	Antimicrobial Screening (MIC) (S. aureus MRO 00059) [µg/mL]	Antimicrobial Screening (MIC) (S. aureus MRO 0001) [µg/mL]	Antimicrobial Screening (MIC) (S. aureus MRO 002053) [µg/mL]	Antimicrobial Screening (MIC) (S. aureus ATCC 29213) [µg/mL]	Antimicrobial Screening (MIC) (S. aureus MRO 00048) [µg/mL]	Antimicrobial Screening (MIC) (S. aureus MRO 0003) [µg/mL]	Antimicrobial Screening (MIC) (E. faecium ATCC 700221) [µg/mL]	Antimicrobial Screening (MIC) (E. faecium MRO 04037) [µg/mL]	also measured
COC(=S)NC[C@H]1CN(c2ccc(N3CCN(C(=O)c4cccnc4)CC3)c(F)c2)C(=O)O1 [Example 2, (S)—O-Methyl(3-(3-fluoro-4-(4-nicotinoylpiperazin-1-yl)phenyl)-2-oxooxazolidin-5-yl)methylcarbamothioate]	4	4	1	0.5	1	0.5	0.5	1	1	1	1	1	1	0.5	1	1	0.5	1	0.5	0.5	Antimicrobial Screening (MIC) (E. faecium MRO 04038): 0.5 µg/mL; Antimicrobial Screening (MIC) (E. faecium MRO 04198): 0.5 µg/mL; Antimicrobial Screening (MIC) [4]: 1 µg/mL; Antimicrobial Screening (MIC) [5]: 1 µg/mL; Antimicrobial Screening (MIC) [6]: 1 µg/mL; Antimicrobial Screening (MIC) (S. epidermidis MRO 02045): 1 µg/mL; Antimicrobial Screening (MIC) (S. epidermidis MRO 02002): 1 µg/mL; Antimicrobial Screening (MIC) (S. epidermidis MRO 02095): 1 µg/mL
COC(=S)NC[C@H]1CN(c2ccc(N3CCN(C(=O)c4ccc([N+](=O)[O-])o4)CC3)c(F)c2)C(=O)O1 [Example 7, (S)—O-Methyl(3-(3-fluoro-4-(4-(5-nitrofuran-2-carbonyl)piperazin-1-yl)phenyl)-2-oxooxazolidin-5-yl)methylcarbamothioate]	0.25	0.25	0.25	0.125	0.125	0.125	0.125	0.125	0.125	0.25	0.25	0.125	0.25	0.125	0.06	0.125	0.125	0.25	0.125	0.25	Antimicrobial Screening (MIC) (E. faecium MRO 04038): 0.125 µg/mL; Antimicrobial Screening (MIC) (E. faecium MRO 04198): 0.25 µg/mL; Antimicrobial Screening (MIC) [4]: 0.03 µg/mL; Antimicrobial Screening (MIC) [5]: 0.125 µg/mL; Antimicrobial Screening (MIC) [6]: 0.125 µg/mL; Antimicrobial Screening (MIC) (S. epidermidis MRO 02045): 0.125 µg/mL; Antimicrobial Screening (MIC) (S. epidermidis MRO 02002): 0.03 µg/mL; Antimicrobial Screening (MIC) (S. epidermidis MRO 02095): 0.03 µg/mL
COC(=S)NC[C@H]1CN(c2ccc(N3CCN(C(=O)c4ccc(N)nc4)CC3)c(F)c2)C(=O)O1 [Example 37, (S)—O-Methyl(3-(4-(4-(6-aminonicotinoyl)piperazin-1-yl)-3-fluorophenyl)-2-oxooxazolidin-5-yl)methylcarbamothioate]	2	1	1	0.25	0.25	0.25	0.25	0.25	0.5	0.5	0.5	0.5	0.5	0.25	0.25	0.5	0.25	0.5	0.25	0.25	Antimicrobial Screening (MIC) (E. faecium MRO 04038): 0.25 µg/mL; Antimicrobial Screening (MIC) (E. faecium MRO 04198): 0.25 µg/mL; Antimicrobial Screening (MIC) [4]: 0.5 µg/mL; Antimicrobial Screening (MIC) [5]: 0.5 µg/mL; Antimicrobial Screening (MIC) [6]: 0.25 µg/mL; Antimicrobial Screening (MIC) (S. epidermidis MRO 02045): 0.25 µg/mL; Antimicrobial Screening (MIC) (S. epidermidis MRO 02002): 0.5 µg/mL; Antimicrobial Screening (MIC) (S. epidermidis MRO 02095): 0.5 µg/mL
COC(=S)NC[C@H]1CN(c2ccc(N3CCN(C(=O)C=Cc4ccc([N+](=O)[O-])o4)CC3)c(F)c2)C(=O)O1 [Example 40, (S)—O-Methyl(3-(3-fluoro-4-(4-(3-(5-nitrofuran-2-yl)acryloyl)piperazin-1-yl)phenyl)-2-oxooxazolidin-5-yl)methylcarbamothioate]	0.125	0.125	0.06	0.25	0.25	0.25	0.25	0.25	0.125	0.25	0.25	0.125	0.25	0.25	0.06	0.25	0.25	0.25	0.125	0.25	Antimicrobial Screening (MIC) (E. faecium MRO 04038): 0.25 µg/mL; Antimicrobial Screening (MIC) (E. faecium MRO 04198): 0.25 µg/mL; Antimicrobial Screening (MIC) [4]: <0.03 µg/mL; Antimicrobial Screening (MIC) [5]: 0.06 µg/mL; Antimicrobial Screening (MIC) [6]: 0.125 µg/mL; Antimicrobial Screening (MIC) (S. epidermidis MRO 02045): <0.03 µg/mL; Antimicrobial Screening (MIC) (S. epidermidis MRO 02002): 0.125 µg/mL; Antimicrobial Screening (MIC) (S. epidermidis MRO 02095): 0.06 µg/mL
